Measurements reported in patent US20130195870A1, “ERBB3 Mutations In Cancer” (Genentech, Inc., priority 2011, published 2013).
Entries after “also recorded” stand apart in the source; their conditions may differ.

What was measured:
[1] = tested on: BaF3 cells stably expressing ERBB3 mutants together with ERBB2; assay: Colony formation assay (anchorage-independent growth), BaF3 cells; format: cell-based, mouse
Experimental: BaF3 cells stably expressing EGFR (2×10^5) or ERBB2 (50,000) along with ERBB3 wild-type or mutants, was mixed with 2 mls of IL3-free Methylcellulose ([…] Technologies, Canada) and plated on to 6 well plates and when indicated, cells were treated with different ERBB antibodies or tyrosine kinase or PI3K small molecule inhibitors before plating. Plates were then incubated at 37° C. for 2 weeks. For MCF10A colony formation, 20,000 MCF10A cells stably expressing ERBB3-WT or mutants alone or in combination with EGFR or ERBB2 were mixed with 0.35% agar in DMEM: F12 lacking serum, EGF, and NRG1 and plated on 0.5% base agar. Plates were then incubated at 37° C. for 3 weeks. The presence of colonies was assessed using Gel count imager (Oxford Optronix Ltd, UK). The number of colonies in each plate was quantified using Gel count software (Oxford Optronix Ltd, UK).

[2] = tested on: BaF3 cells stably expressing ERBB3 mutants together with ERBB2; assay: Survival and proliferation assay, IL-3 independent BaF3 cells; format: cell-based, mouse; conditions: for blocking oncogenic signaling by ERBB3 mutants: summary statement
Experimental: BaF3 cells stably expressing the wild-type and mutant ERBB3 alone or together with EGFR or ERBB2, were washed twice in PBS and plated in 3×96-well plates in replicates of eight in complete RPMI medium without IL3. As needed cells were then treated with different concentration of NRG1 and anti-NRG1 antibody or different ERBB antibodies, tyrosine kinase or PI3K small molecule inhibitors to test their effects on survival or cell proliferation, where relevant as depicted in the figures. Viable cells at 0 h and 120 h were determined using Cell Titer-Glo luminescence cell viability kit (Promega Corp., WI) and Synergy 2 (Biotek Instrument, CA) luminescence plate reader. All the cell number values were normalized against Oh values. In order to assess proliferation of MCF10A stably expressing ERBB3-WT or mutants were washed twice in PBS and 5000 cells plated in 96-well plates in replicates of eight in triplicates serum-free media and allowed to proliferate for 5 days. Cell numbers were measure at day 0 and day 5 using the luminescence cell viability kit. […] Mean and statistical significance was determined using GraphPad V software (GraphPad, CA).

[3] = all the ERBB3 mutants tested, co-expressed with ERBB2, no IL-3
[4] = Q809R kinase domain ERBB3 mutant, at the tested dose
[5] = all the mutants tested except Q809R

Molecule	blocking colony formation [1, 3]	blocking cell proliferation [2, 3]	blocking colony formation ([1]; ERBB3 ECD mutants)	blocking colony formation [1, 4]	blocking colony formation [1, 5]	blocking cell proliferation ([2]; ERBB3 ECD mutants)	blocking cell proliferation [2, 4]	blocking cell proliferation [2, 5]	blocking oncogenic signaling by ERBB3 mutants ([2]; in vitro and in vivo, majority/most of the ERBB3 mutants tested)	blocking oncogenic signaling by ERBB3 mutants ([2]; kinase domain mutant Q809R)
CS(=O)(=O)CCNCc1ccc(-c2ccc3ncnc(Nc4ccc(OCc5cccc(F)c5)c(Cl)c4)c3c2)o1 [lapatinib]	quite effective	quite effective	–	–	–	–	–	–	–	–
CS(=O)(=O)N1CCN(Cc2cc3nc(-c4cccc5[nH]ncc45)nc(N4CCOCC4)c3s2)CC1 [GDC-0941]	–	–	very effective	only partially effective; also recorded: only modestly effective	effective	very effective	only partially effective; also recorded: only modestly effective	effective	quite active	not as effective; also recorded: reduced efficacy
MEHD7945A: a dual ERBB3/EGFR antibody that blocks ligand binding (binds domain III of EGFR and ERBB3) (antibody, V domains shown) VH: EVQLVESGGGLVQPGGSLRLSCAASGFTLSGDWIHWVRQAPGKGLEWVGEISAAGGYTDYADSVKGRFTISADTSKNTAYLQMNSLRAEDTAVYYCARESRVSFEAAMDYWGQGTLVTVSS VL: DIQMTQSPSSLSASVGDRVTITCRASQNIATDVAWYQQKPGKAPKLLIYSASFLYSGVPSRFSGSGSGTDFTLTISSLQPEDFATYYCQQSEPEPYTFGQGTKVEIKR	effective	–	–	–	–	–	–	–	–	–
